Data set [1] is described as follows: Brain concentration when administered in vivo. The note with it: compared to a suitable reference compound, e.g. NB-DNJ (miglustat) or AMP-DNM. The source says: Permeability can be assessed using a variety of standard experimental techniques, including without limitation in situ perfusion, ex vivo tissue diffusion, in vitro cell monolayers (e.g. Caco-2 cells, MDCK cells, LLC-PK1 cells), and artificial cell membranes (e.g. PAMPA assay); suitable techniques for measuring effective permeability (Peff) or apparent permeability (Papp) are reviewed for example by Volpe in The AAPS Journal, 2010, 12(4), 670-678. In some embodiments, one or more of the compounds according to the invention may show enhanced permeability when tested in one or more of these assays for determining Peff or Papp. […] In some embodiments, “enhanced permeability” means an increase in measured Peff or Papp by any value between about 10% and about 100%, or of any integer value between about 10% and about 100%, for example, about 10%, 20%, 30%, 40%, 50%, 60%, 70%, 80%, 90%, 100%, or over 100%, or an increase by about 1-fold, 2-fold, or 3-fold, or more, as compared to a suitable reference compound such as, for example, N-butyldeoxynojirimycin (NB-DNJ, miglustat) or N-(5-adamantane-1-yl-methoxy)pentyl)-deoxynojirimycin (AMP-DNM, Genz-529648). In some embodiments, “enhanced permeability” means a measurable Papp value (i.e. a value greater than zero) in a suitable assay to measure Papp using in vitro cell monolayers. In some embodiments, “enhanced permeability” means a Papp value greater than 2×10^−6 cm/s in a suitable assay to measure Papp using in vitro cell monolayers. In alternative embodiments, “enhanced permeability” means a Papp value in the range 2×10^−6 cm/s to 40×10^−6 cm/s in a suitable assay to measure Papp using in vitro cell monolayers. In some embodiments, “higher brain concentration” means an increase in measured brain concentration when the compound is administered in vivo by any value between about 10% and about 100%, or of any integer value between about 10% and about 100%, for example, about 10%, 20%, 30%, 40%, 50%, 60%, 70%, 80%, 90%, 100%, or over 100%, or an increase by about 1-fold, 2-fold, 3-fold, 4-fold, 5-fold, 10-fold, 20-fold, 30-fold, 40-fold, or 50-fold, or more, as compared to a suitable reference compound such as, for example, N-butyldeoxynojirimycin (NB-DNJ, miglustat) or N-(5-adamantane-1-yl-methoxy)pentyl)-deoxynojirimycin (AMP-DNM, Genz-529648).

Data set [2] deals with T1, GBA2 (Homo sapiens, UniProt Q9HCG7).
T1 sequence (Q9HCG7 1-927): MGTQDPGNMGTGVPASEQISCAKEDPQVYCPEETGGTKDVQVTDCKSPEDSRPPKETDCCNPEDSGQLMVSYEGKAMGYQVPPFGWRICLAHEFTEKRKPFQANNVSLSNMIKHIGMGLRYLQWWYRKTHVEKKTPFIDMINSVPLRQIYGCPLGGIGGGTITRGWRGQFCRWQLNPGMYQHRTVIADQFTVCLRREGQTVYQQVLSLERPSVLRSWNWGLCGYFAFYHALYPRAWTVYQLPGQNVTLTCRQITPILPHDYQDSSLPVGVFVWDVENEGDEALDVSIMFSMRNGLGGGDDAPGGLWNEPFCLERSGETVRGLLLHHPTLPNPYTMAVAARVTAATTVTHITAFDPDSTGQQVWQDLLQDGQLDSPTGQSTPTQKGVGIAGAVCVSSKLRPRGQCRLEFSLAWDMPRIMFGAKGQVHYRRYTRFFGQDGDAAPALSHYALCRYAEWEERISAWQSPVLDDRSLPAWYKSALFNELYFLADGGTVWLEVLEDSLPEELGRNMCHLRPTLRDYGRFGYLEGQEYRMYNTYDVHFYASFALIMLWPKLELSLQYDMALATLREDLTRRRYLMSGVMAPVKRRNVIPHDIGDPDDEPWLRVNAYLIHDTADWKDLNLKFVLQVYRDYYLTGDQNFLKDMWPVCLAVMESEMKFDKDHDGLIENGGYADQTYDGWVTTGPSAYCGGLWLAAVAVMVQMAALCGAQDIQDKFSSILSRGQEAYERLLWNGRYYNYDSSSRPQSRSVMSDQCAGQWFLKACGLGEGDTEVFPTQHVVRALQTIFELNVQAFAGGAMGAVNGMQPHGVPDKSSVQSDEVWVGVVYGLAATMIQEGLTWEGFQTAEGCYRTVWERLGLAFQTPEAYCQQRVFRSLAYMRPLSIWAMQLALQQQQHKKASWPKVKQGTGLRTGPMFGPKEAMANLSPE
Description: Determination of IC50 values for inhibition of GBA2 in cell lysate. In kind it is biochemical. More on the design: host or cells: HEK293T (lentiviral transduction, puromycin selection); used as cellular homogenate. Put shortly:
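Fluorogenic 4-MU-β-glucoside (250 μM) turnover over 20 min at 37 °C, pH 5.5, measured after NaOH/glycine stop (ex 365, em 450 nm). Enzyme source: lysate (0.083 mg/mL) of lentivirally transduced GBA2-HEK293T, GCase blocked by 20 μM azaspiro-octanediol; compound preincubated 5 min; IC50 = 50% inhibition concentration.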

Data set [3] concerns the target T1, GBA2. The data set can be described thus: Binding specificity (selectivity) for GBA2 over other enzymes. In kind it is biochemical. As to conditions: compared to a suitable reference compound, e.g. NB-DNJ (miglustat) or AMP-DNM.

The values below come from patent US12612380B2, “Non-lysosomal glucosylceramidase inhibitors and uses thereof” (ALECTOS THERAPEUTICS INC., priority 2019, dated 2026).

SMILES strings stand for the structures.

Consider `C[C@@H]1[C@@H](O)[C@H](O)[C@@H](O)CN1CCc1ccc2c(c1)OCO2` [Example 70, (2R,3R,4R,5S)-1-(2-(benzo[d][1,3]dioxol-5-yl)ethyl)-2-methylpiperidine-3,4,5-triol], for which, in data set [1], the “brain concentration when administered in vivo” value is listed as “higher brain concentrations”. For the same molecule, the IC50 in data set [2] is less than 100 nM. Moreover, the “binding specificity (IC50 or Ki of other molecule / GBA2)” value in data set [3] is listed as “enhanced binding specificity”.

One may read the IC50 as the concentration that gives 50% inhibition.
